Reference: patent publication US20250162990A1, “COMPOUNDS AND METHODS FOR INHIBITING CANCERS OVER-EXPRESSING REPLICATION FACTOR C 40” (RAADYSAN BIOTECH, INC., priority 2022, published 2025)

Key:
MDA-MB-231 cells = assay: Apoptosis, caspase3/7 activation, ApoLive Glo Multiplex Assay; assay type: cell-based; conditions: 24 hr, caspase3/7 luminescence
Experimental: (§1) Non-cancerous breast epithelial cells (MCF10A) and TNBC cell line (MDA-MB-231; mesenchymal; originating from a person) were purchased from the ATCC (American Type Culture Collection, Manassas, Virginia). The effect of the 7 SMEs on cell viability and apoptosis, in MDA-MB-231 and MCF10A cell lines, respectively, was determined as follows. The MCF10A and MDA-MB-231 cells were incubated with different concentrations (100 μM, 10 μM, 1 μM, 0.1 μM, 10 nM, 1 nM, 0.1 nM, and DMSO only) of the 7 SMEs for 24 hours at 37° C. Cell viability and apoptosis was estimated using the ApoLive Glo Multiplex Assay kit 29 (Promega, Madison, WI). Live-cell protease fluorescence (cell viability) was measured at 400 Ex/505 Em and caspase3/7 activation (apoptosis) was measured by luminescence on Envision plate reader.

[1] = system: MCF10A cells (non-cancerous breast epithelial cells); assay: Cell viability, ApoLive Glo Multiplex Assay (live-cell protease fluorescence); assay type: cell-based; conditions: 24 hours; for effect on the cell viability of MCF10A cells at lower drug concentrations: concentrations of up to 10 μM; for effect on the cell viability of MCF10A cells: 0.1 nM to 100 μM
Experimental: as §1

[2] = system: MDA-MB-231 cells (TNBC cell line); assay: as above; assay type: cell-based; conditions: for EC50: Homo sapiens, MDA-MB-231, 24 hours at 37° C., read-out: EC50, inhibition of TNBC cell viability; for inhibited TNBC cell viability: MDA-MB-231, 24 hours, dose-dependent (up to 100 μM)
Experimental: as §1

[3] = target: T1, Recombinant human RFC40 protein (Homo sapiens, UniProt P35250); assay: RFC40 ATPase enzyme activity, ADP-Glo Max Assay; assay type: biochemical; conditions: RFC40 250 nM, ATP 25 μM; for inhibition at 0.0001 µM: 0.1 nM compound, after 90 min pre-incubation, read-out: time-dependent increase in the inhibition of the RFC40 enzyme activity; for inhibition of RFC40 enzyme activity after 30 min of incubation: 30 min pre-incubation at 37° C.
T1 construct: purchased Origene Technologies (Rockville, MD)
Experimental: FIGS. 15A-B are graphs of RFC40 ATPase activity inhibition. Human recombinant RFC40 (250 nM) was pre-incubated, individually, with different concentrations of compounds labeled RDY00209 and RDY00120 at 37° C. ATP (25 μM) was then added to the mixture and the ATPase enzyme activity of RFC40 was estimated using the ADP-Glo Max Assay. FIG. 15A presents RFC40 enzyme activity after a 30 min incubation with each compound, and FIG. 15B presents RFC40 enzyme activity after a 90 min incubation with each compound.
Method: Biochemical assays were performed to determine the effects of the 2 SMEs RDY00209 and RDY00120 on the enzymatic activity of RFC40. Recombinant human RFC40 protein was purchased from Origene Technologies (Rockville, MD). ATPase enzyme activity of RFC40 was estimated using the ADP-Glo Max Assay kit^32 (Promega, Madison, WI), as per the manufacturer's instructions. RFC40 (250 nM) was pre-incubated, individually, with different concentrations (100 μM, 0.1 μM, 0.1 nM and 0) of RDY00209 and RDY00120 for 30 min and 90 min, respectively, at 37° C. ATP (25 μM) was then added to the mixture and incubated for another 3 hours at 37° C. Luminescence was read on an Envision plate reader.

RFC40 in HEK293 cells = target: T2, RFC40 in HEK293 cells (Homo sapiens, UniProt P35250); assay: RFC40 protein expression by Western blot; assay type: cell-based; conditions: 2 different concentrations, 24 hr
T2 construct: endogenous in cells; host or cells: HEK293
Experimental: HEK293 cells were plated in 6-well plates and grown until they were 80% confluent. The cells were then treated with RDY00012, in a dose-dependent manner [100 μM, 10 μM, 1 μM, 0.1 μM, 0 μM (DMSO only)], for 24 hours at 37° C. Samples were run 9% SDS-PAGE and Western blot analysis was performed using rabbit polyclonal anti-RFC40 (1:100, Abcepta) and mouse monoclonal anti-β-Actin (1:500, Santa Cruz Tech) primary antibodies, respectively. Following incubation with anti-rabbit, and anti-mouse secondary antibodies, respectively, specific proteins were detected by chemiluminescence.

T1 sequence (P35250 whole entry): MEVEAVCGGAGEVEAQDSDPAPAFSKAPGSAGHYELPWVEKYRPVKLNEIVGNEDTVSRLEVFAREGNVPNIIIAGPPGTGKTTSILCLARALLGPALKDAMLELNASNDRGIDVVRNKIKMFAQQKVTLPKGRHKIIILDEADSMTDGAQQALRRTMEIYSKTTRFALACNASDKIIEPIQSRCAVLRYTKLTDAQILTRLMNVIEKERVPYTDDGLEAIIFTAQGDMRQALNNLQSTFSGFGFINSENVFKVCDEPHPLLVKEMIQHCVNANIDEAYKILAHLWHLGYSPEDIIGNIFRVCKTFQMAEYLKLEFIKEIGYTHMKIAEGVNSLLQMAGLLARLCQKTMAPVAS
T2 sequence (P35250 whole entry): as above

EC50 [2] [µM] | inhibition at 0.0001 µM [3] [%] | expression of RFC40 (RFC40 in HEK293 cells) | SMILES | induction of apoptosis in MDA-MB-231 cells (MDA-MB-231 cells) | effect on the cell viability of MCF10A cells at lower drug concentrations [1] | inhibited TNBC cell viability [2] [%] | effect on the cell viability of MCF10A cells [1] | inhibition of RFC40 enzyme activity after 30 min of incubation [3]
5.42 |  |  | COc1cccc(-c2ccc(=O)n(CCCC(=O)Nc3nnc(C)s3)n2)c1 [RDY00034] | did not induce apoptosis | did not affect | 95 |  | 
7.14 | 36.5 |  | O=C(O)c1csc(S(=O)(=O)Nc2cccc3c2CCCC3)c1 [RDY00120] | did not induce apoptosis |  | 95 | no effect | inhibited the enzyme activity in a dose-dependent manner
7.81 |  | downregulated the expression of RFC40 | O=C(O)c1ccc(OCc2ccc3nsnc3c2)cc1 [RDY00012] | did not induce apoptosis | did not affect | 95 |  | 
6.92 | 22.1 |  | O=C(O)CNC(=O)CCn1ccc2ccc(Cl)cc21 [RDY00209] | did not induce apoptosis |  | 95 | no effect | inhibited the enzyme activity in a dose-dependent manner
